Experiment: Plasma pharmacokinetics of BI 187004 after single oral doses (LC–MS/MS)
Details: male, human, plasma, po
Method: This was a randomized, double-blind, placebo-controlled, single rising dose study conducted at a single center in Germany. […] Follow-up on an ambulatory basis was performed between 11 and 15 days after study drug administration. […] At the time of use the oral solution for dosing was prepared using the PFOS and a co-supplied aqueous solvent containing HP-beta-cyclodextrin 100 mg/mL. The lowest dose level solutions were prepared by further dilution of the lower concentration solution with additional solvent.
For each accepted run, the acceptance criteria for the calibration standards and quality controls were met.

## N#Cc1ccc2c(c1)[C@H]1CCCN(C(=O)c3ccc4[nH]cnc4c3)[C@H]1C2 [BI 187004]
2.5 mg, Plasma concentration gMean, 2.5 mg single oral, 2.5 h
  concentration at 2.5 h: 7.33 nM
2.5 mg, Plasma concentration gMean, 2.5 mg single oral, 3 h
  concentration at 3 h: 6.19 nM
2.5 mg, Plasma concentration gMean, 2.5 mg single oral, 4 h
  concentration at 4 h: 5.87 nM
2.5 mg, Plasma concentration gMean, 2.5 mg single oral, 5 h
  concentration at 5 h: 6.61 nM
2.5 mg, Plasma concentration gMean, 2.5 mg single oral, 6 h
  concentration at 6 h: 5.38 nM
2.5 mg, Plasma concentration gMean, 2.5 mg single oral, 10 h
  concentration at 10 h: 4.38 nM
2.5 mg, Plasma concentration gMean, 2.5 mg single oral, 12 h
  concentration at 12 h: 4.53 nM
2.5 mg, Plasma concentration gMean, 2.5 mg single oral, 24 h
  concentration at 24 h: 4.54 nM
2.5 mg, Plasma concentration gMean, 2.5 mg single oral, 48 h
  concentration at 48 h: 3.93 nM
2.5 mg, Plasma concentration, individual subjects, 2.5 mg single oral, planned time 8 h
  concentration at 8 h: 6.73 nM
2.5 mg, Plasma concentration, individual subjects, 2.5 mg single oral, planned time 10 h
  concentration at 10 h: 5.99 nM
2.5 mg, Plasma concentration, individual subjects, 2.5 mg single oral, planned time 12 h
  concentration at 12 h: 6.44 nM
2.5 mg, Plasma concentration, individual subjects, 2.5 mg single oral, planned time 24 h
  concentration at 24 h: 4.19 nM
2.5 mg, Plasma concentration, individual subjects, 2.5 mg single oral, planned time 36 h
  concentration at 36 h: 5.06 nM
2.5 mg, Plasma concentration, individual subjects, 2.5 mg single oral, planned time 48 h
  concentration at 48 h: 3.58 nM
2.5 mg, Plasma concentration, individual subjects, 2.5 mg single oral, planned time 72 h
  concentration at 72 h: 3.34 nM
2.5 mg, Plasma concentration, individual subjects, 2.5 mg single oral, planned time 96 h
  concentration at 96 h: 3.04 nM
5 mg
  AUC(0-inf): 2.5 µM·h
  AUC(0-t): 1.49 µM·h
  Cmax: 150 nM
  Tmax: 1 h
  Vd/F: 281 L
  half-life: 33.5 h
5 mg, C24 gMean (%gCV), 5 mg single oral dose
  concentration at 24 h: 30 nM
5 mg, Plasma concentration Mean, 5 mg single oral
  concentration at 0.5 h: 101 nM
5 mg, Plasma concentration Mean, 5 mg single oral, 1 h
  concentration at 1 h: 147 nM
5 mg, Plasma concentration Mean, 5 mg single oral, 1.5 h
  concentration at 1.5 h: 135 nM
5 mg, Plasma concentration Mean, 5 mg single oral, 2 h
  concentration at 2 h: 122 nM
5 mg, Plasma concentration Mean, 5 mg single oral, 2.5 h
  concentration at 2.5 h: 123 nM
5 mg, Plasma concentration Mean, 5 mg single oral, 3 h
  concentration at 3 h: 114 nM
5 mg, Plasma concentration Mean, 5 mg single oral, 4 h
  concentration at 4 h: 105 nM
5 mg, Plasma concentration Mean, 5 mg single oral, 5 h
  concentration at 5 h: 97.4 nM
5 mg, Plasma concentration Mean, 5 mg single oral, 6 h
  concentration at 6 h: 81.2 nM
5 mg, Plasma concentration Mean, 5 mg single oral, 8 h
  concentration at 8 h: 72.9 nM
5 mg, Plasma concentration Mean, 5 mg single oral, 10 h
  concentration at 10 h: 58 nM
5 mg, Plasma concentration Mean, 5 mg single oral, 12 h
  concentration at 12 h: 49.7 nM
5 mg, Plasma concentration Mean, 5 mg single oral, 24 h
  concentration at 24 h: 31 nM
5 mg, Plasma concentration Mean, 5 mg single oral, 36 h
  concentration at 36 h: 14.9 nM
5 mg, Plasma concentration Mean, 5 mg single oral, 48 h
  concentration at 48 h: 13.1 nM
5 mg, Plasma concentration Mean, 5 mg single oral, 72 h
  concentration at 72 h: 7.42 nM
5 mg, Plasma concentration Mean, 5 mg single oral, 96 h
  concentration at 96 h: 4.78 nM
5 mg, Plasma concentration Median, 5 mg single oral
  concentration at 0.5 h: 128 nM
5 mg, Plasma concentration Median, 5 mg single oral, 1 h
  concentration at 1 h: 141 nM
5 mg, Plasma concentration Median, 5 mg single oral, 1.5 h
  concentration at 1.5 h: 140 nM
5 mg, Plasma concentration Median, 5 mg single oral, 2 h
  concentration at 2 h: 126 nM
5 mg, Plasma concentration Median, 5 mg single oral, 2.5 h
  concentration at 2.5 h: 121 nM
5 mg, Plasma concentration Median, 5 mg single oral, 3 h
  concentration at 3 h: 113 nM
5 mg, Plasma concentration Median, 5 mg single oral, 4 h
  concentration at 4 h: 98.4 nM
5 mg, Plasma concentration Median, 5 mg single oral, 5 h
  concentration at 5 h: 98.1 nM
5 mg, Plasma concentration Median, 5 mg single oral, 6 h
  concentration at 6 h: 78.8 nM
5 mg, Plasma concentration Median, 5 mg single oral, 8 h
  concentration at 8 h: 71 nM
5 mg, Plasma concentration Median, 5 mg single oral, 10 h
  concentration at 10 h: 57.1 nM
5 mg, Plasma concentration Median, 5 mg single oral, 12 h
  concentration at 12 h: 50.3 nM
5 mg, Plasma concentration Median, 5 mg single oral, 24 h
  concentration at 24 h: 32.2 nM
5 mg, Plasma concentration Median, 5 mg single oral, 36 h
  concentration at 36 h: 15.5 nM
5 mg, Plasma concentration Median, 5 mg single oral, 48 h
  concentration at 48 h: 11.2 nM
5 mg, Plasma concentration Median, 5 mg single oral, 72 h
  concentration at 72 h: 6.1 nM
5 mg, Plasma concentration Median, 5 mg single oral, 96 h
  concentration at 96 h: 4.24 nM
5 mg, Plasma concentration gMean, 5 mg single oral
  concentration at 0.5 h: 63.7 nM
5 mg, Plasma concentration gMean, 5 mg single oral, 1 h
  concentration at 1 h: 144 nM
5 mg, Plasma concentration gMean, 5 mg single oral, 1.5 h
  concentration at 1.5 h: 134 nM
5 mg, Plasma concentration gMean, 5 mg single oral, 2 h
  concentration at 2 h: 121 nM
5 mg, Plasma concentration gMean, 5 mg single oral, 2.5 h
  concentration at 2.5 h: 122 nM
5 mg, Plasma concentration gMean, 5 mg single oral, 3 h
  concentration at 3 h: 113 nM
5 mg, Plasma concentration gMean, 5 mg single oral, 4 h
  concentration at 4 h: 104 nM
5 mg, Plasma concentration gMean, 5 mg single oral, 5 h
  concentration at 5 h: 96 nM
5 mg, Plasma concentration gMean, 5 mg single oral, 6 h
  concentration at 6 h: 79.9 nM
5 mg, Plasma concentration gMean, 5 mg single oral, 8 h
  concentration at 8 h: 71.8 nM
5 mg, Plasma concentration gMean, 5 mg single oral, 10 h
  concentration at 10 h: 56.8 nM
5 mg, Plasma concentration gMean, 5 mg single oral, 12 h
  concentration at 12 h: 48.5 nM
5 mg, Plasma concentration gMean, 5 mg single oral, 24 h
  concentration at 24 h: 30 nM
5 mg, Plasma concentration gMean, 5 mg single oral, 36 h
  concentration at 36 h: 14.2 nM
5 mg, Plasma concentration gMean, 5 mg single oral, 48 h
  concentration at 48 h: 12.5 nM
5 mg, Plasma concentration gMean, 5 mg single oral, 72 h
  concentration at 72 h: 7.05 nM
5 mg, Plasma concentration gMean, 5 mg single oral, 96 h
  concentration at 96 h: 4.6 nM
5 mg, Plasma concentration, individual subjects, 5 mg single oral, planned time 1 h
  concentration at 1 h: 112 nM
5 mg, Plasma concentration, individual subjects, 5 mg single oral, planned time 1.5 h
  concentration at 1.5 h: 144 nM
5 mg, Plasma concentration, individual subjects, 5 mg single oral, planned time 2 h
  concentration at 2 h: 127 nM
5 mg, Plasma concentration, individual subjects, 5 mg single oral, planned time 2.5 h
  concentration at 2.5 h: 122 nM
5 mg, Plasma concentration, individual subjects, 5 mg single oral, planned time 3 h
  concentration at 3 h: 118 nM
5 mg, Plasma concentration, individual subjects, 5 mg single oral, planned time 4 h
  concentration at 4 h: 99.5 nM
5 mg, Plasma concentration, individual subjects, 5 mg single oral, planned time 5 h
  concentration at 5 h: 96.9 nM
5 mg, Plasma concentration, individual subjects, 5 mg single oral, planned time 6 h
  concentration at 6 h: 80.6 nM
5 mg, Plasma concentration, individual subjects, 5 mg single oral, planned time 8 h
  concentration at 8 h: 72.1 nM
5 mg, Plasma concentration, individual subjects, 5 mg single oral, planned time 24 h
  concentration at 24 h: 35.1 nM
5 mg, Plasma concentration, individual subjects, 5 mg single oral, planned time –0.5 h
  concentration at -0.5 h: 90.2 nM
10 mg
  AUC(0-inf): 5.91 µM·h
  AUC(0-t): 4.38 µM·h
  Cmax: 502 nM
  Tmax: 1 h
  Vd/F: 169 L
  half-life: 23.7 h
10 mg, C24 gMean (%gCV), 10 mg single oral dose
  concentration at 24 h: 71.3 nM
10 mg, Plasma concentration Mean, 10 mg single oral
  concentration at 0.5 h: 365 nM
10 mg, Plasma concentration Mean, 10 mg single oral, 1 h
  concentration at 1 h: 429 nM
10 mg, Plasma concentration Mean, 10 mg single oral, 1.5 h
  concentration at 1.5 h: 438 nM
10 mg, Plasma concentration Mean, 10 mg single oral, 2 h
  concentration at 2 h: 382 nM
10 mg, Plasma concentration Mean, 10 mg single oral, 2.5 h
  concentration at 2.5 h: 376 nM
10 mg, Plasma concentration Mean, 10 mg single oral, 3 h
  concentration at 3 h: 339 nM
10 mg, Plasma concentration Mean, 10 mg single oral, 4 h
  concentration at 4 h: 346 nM
10 mg, Plasma concentration Mean, 10 mg single oral, 5 h
  concentration at 5 h: 277 nM
10 mg, Plasma concentration Mean, 10 mg single oral, 6 h
  concentration at 6 h: 260 nM
10 mg, Plasma concentration Mean, 10 mg single oral, 8 h
  concentration at 8 h: 213 nM
10 mg, Plasma concentration Mean, 10 mg single oral, 10 h
  concentration at 10 h: 182 nM
10 mg, Plasma concentration Mean, 10 mg single oral, 12 h
  concentration at 12 h: 146 nM

Source: PMC8364686, “Safety, tolerability, pharmacokinetics and pharmacodynamics of single oral doses of BI 187004, an inhibitor of 11beta-hydroxysteroid dehydrogenase-1, in healthy male volunteers with overweight or obesity” (Clinical Diabetes and Endocrinology, 2021)
